By IC50 is commonly meant the concentration that gives 50% inhibition.

The structures appear in SMILES notation.

The target of test [1] is T1, GPR43 (Homo sapiens, UniProt O15552).
T1 construct: expressed in transfected cells
T1 sequence (O15552 1-330): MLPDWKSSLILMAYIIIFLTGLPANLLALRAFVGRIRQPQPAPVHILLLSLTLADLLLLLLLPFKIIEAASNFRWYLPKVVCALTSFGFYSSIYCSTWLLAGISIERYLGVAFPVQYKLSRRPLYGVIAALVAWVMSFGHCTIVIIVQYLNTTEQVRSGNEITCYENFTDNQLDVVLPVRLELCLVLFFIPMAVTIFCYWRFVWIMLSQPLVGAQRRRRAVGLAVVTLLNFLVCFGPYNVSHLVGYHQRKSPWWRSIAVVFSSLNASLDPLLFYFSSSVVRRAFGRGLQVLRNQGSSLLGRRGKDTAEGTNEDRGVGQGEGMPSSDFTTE
Nature of the test: Calcium mobilization assay with probenecid. It counts as cell-based. Particulars: GPR43 stably expressing cells; triggered with sodium acetate at EC80; 2.5 mM probenecid; read-out: GPR43 assay with probenicid IC50. The essentials: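 […] being added at rising concentrations to a GPR43 stable line. Before this, cells were dye-loaded (Calcium 4 with 2.5 mM probenecid) for 2 h at 37 °C after overnight plating.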

For test [2], the target named is T1, GPR43. As to the kind of experiment: Calcium mobilization assay without probenecid. Particulars: GPR43 stably expressing cells, triggered with sodium acetate at EC80, read-out: GPR43 assay without probenicid IC50. Type of test: cell-based. The essentials:
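In GPR43-expressing cells loaded with a Calcium 4 dye, antagonism was tested by a 15 min compound preincubation at 37 °C, then a sodium acetate challenge at EC80, with Ca-flux read on injection. For agonism, Ca-flux was recorded directly on compound injection.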
A general note: Calcium assays in cells follow changes in intracellular calcium, usually with a dye or a luminescent sensor.

As for `COCCN(Cc1ccc(Cl)cc1)C(=O)C1(C)CCN1C(=O)Cc1cc(C)cc(C)c1` (stereo not shown) [Compound 56, 1-[2-(3,5-Dimethyl-phenyl)-acetyl]-2-methyl-azetidine-2-carboxylic acid (4-chloro-benzyl)-(2-methoxy-ethyl)-amide], the IC50 on GPR43 [1] and on GPR43 [2] was more than 1000 nM each time.
With `CC1(C(=O)NCc2ccc(Cl)cc2)CCN1C(=O)Cc1csc2ccccc12` (stereo not shown) [Compound 57, 1-(2-Benzo[b]thiophen-3-yl-acetyl)-2-methyl-azetidine-2-carboxylic acid 4-chloro-benzylamide], the IC50 on GPR43 [1] and on GPR43 [2] was more than 1000 nM each time.
Regarding `CCOC(=O)CN(Cc1ccc(Cl)cc1)C(=O)C1(C)CCN1C(=O)Cc1csc2ccccc12` (stereo not shown) [Compound 58, [[1-(2-Benzo[b]thiophen-3-yl-acetyl)-2-methyl-azetidine-2-carbonyl]-(4-chloro-benzyl)-amino]-acetic acid ethyl ester], the IC50 at GPR43 [1] and on GPR43 [2] was 101 to 500 nM each time.
Take `Cc1cc(C)cc(CC(=O)N2CCC2(C)C(=O)N(CC(=O)O)Cc2cccc(C)c2)c1` (stereo not shown) [Compound 59, [{1-[2-(3,5-Dimethyl-phenyl)-acetyl]-2-methyl-azetidine-2-carbonyl}-(3-methyl-benzyl)-amino]-acetic acid]: the IC50 at GPR43 [1] and at GPR43 [2] was more than 1000 nM throughout.
`COC(=O)CN(Cc1cccc(Cl)c1)C(=O)C1(C)CCN1C(=O)Cc1csc2ccccc12` (stereo not shown) [Compound 60, [[1-(2-Benzo[b]thiophen-3-yl-acetyl)-2-methyl-azetidine-2-carbonyl]-(3-chloro-benzyl)-amino]acetic acid methyl ester]: the IC50 was 501 to 1000 nM on GPR43 [1] and more than 1000 nM at GPR43 [2].
In the same order, the values of `COC(=O)CCCN(Cc1ccc(Cl)cc1)C(=O)C1(C)CCN1C(=O)Cc1cc(C)cc(C)c1` (stereo not shown) [Compound 63, 4-((4-Chloro-benzyl)-{1-[2-(3,5-dimethyl-phenyl)-acetyl]-2-methyl-azetidine-2-carbonyl}-amino)-butyric acid methyl ester] are 101 to 500 nM and 101 to 500 nM.
In the case of `CC1(C(=O)N(CC(=O)O)Cc2cccc(Cl)c2)CCN1C(=O)Cc1csc2ccccc12` (stereo not shown) [Compound 66, [[1-(2-Benzo[b]thiophen-3-yl-acetyl)-2-methyl-azetidine-2-carbonyl]-(3-chloro-benzyl)-amino]-acetic acid], the figures for the IC50 on GPR43 [1] and at GPR43 [2] were 501 to 1000 nM and 101 to 500 nM, respectively.
The corresponding values for `Cc1cc(C)cc(CC(=O)N2CCC2(C)C(=O)N(CC#N)Cc2ccc(Cl)cc2)c1` (stereo not shown) [Compound 68, 1-[2-(3,5-dimethyl-phenyl)-acetyl]-2-methyl-azetidine-2-carboxylic acid (4-chloro-benzyl)-cyanomethyl-amide] are 101 to 500 nM and 101 to 500 nM.
With `Cc1cccc(CN(CC(=O)O)C(=O)C2(C)CCN2C(=O)Cc2csc3ccccc23)c1` (stereo not shown) [Compound 69, [[1-(2-Benzo[b]thiophen-3-yl-acetyl)-2-methyl-azetidine-2-carbonyl]-(3-methyl-benzyl)-amino]-acetic acid], the IC50 at GPR43 [1] was 501 to 1000 nM; on GPR43 [2] it was more than 1000 nM.
The corresponding values for `Cc1cc(C)cc(CC(=O)N2CCC2(C)C(=O)N(CCC(N)=O)Cc2ccc(Cl)cc2)c1` (stereo not shown) [Compound 71, 1-[2-(3,5-Dimethyl-phenyl)-acetyl]-2-methyl-azetidine-2-carboxylic acid (2-carbamoyl-ethyl)-(4-chloro-benzyl)-amide] are 501 to 1000 nM and more than 1000 nM.
Consider `Cc1cc(C)cc(CC(=O)N2CCC2(C)C(=O)N(Cc2ccc(Cl)cc2)CC(C)O)c1` (stereo not shown) [Compound 72, 1-[2-(3,5-Dimethyl-phenyl)-acetyl]-2-methyl-azetidine-2-carboxylic acid (4-chloro-benzyl)-(2-hydroxy-propyl)-amide], for which the IC50 on GPR43 [1] lay within 101 to 500 nM; on GPR43 [2], 501 to 1000 nM.
As for `Cc1cc(C)cc(CC(=O)N2CCC2(C)C(=O)N(Cc2ccc(Cl)cc2)[C@H](C)C(=O)O)c1` (stereo partly drawn) [Compound 74, (R)-2-((4-Chloro-benzyl)-{1-[2-(3,5-dimethyl-phenyl)-acetyl]-2-methyl-azetidine-2-carbonyl}-amino)-propionic acid], the IC50 at GPR43 [1] and on GPR43 [2] was more than 1000 nM throughout.
As to `Cc1cc(C)cc(CC(=O)N2CCC2(C)C(=O)N(CC(N)=O)Cc2ccc(Cl)cc2)c1` (stereo not shown) [Compound 75, 1-[2-(3,5-Dimethyl-phenyl)-acetyl]-2-methyl-azetidine-2-carboxylic acid carbamoylmethyl-(4-chloro-benzyl)-amide], the IC50 on GPR43 [1] and on GPR43 [2] was 101 to 500 nM throughout.
Turning to `Cc1cc(C)cc(CC(=O)N2CCC2(C)C(=O)N(CCC#N)Cc2ccc(Cl)cc2)c1` (stereo not shown) [Compound 77, 1-[2-(3,5-Dimethyl-phenyl)-acetyl]-2-methyl-azetidine-2-carboxylic acid (4-chloro-benzyl)-(2-cyano-ethyl)-amide], the IC50 on GPR43 [1] was 101 to 500 nM; at GPR43 [2] it was more than 1000 nM.
Turning to `CC1(C(=O)N(CC(=O)O)Cc2ccc(Cl)cc2)CCN1C(=O)Cc1coc2ccccc12` (stereo not shown) [Compound 78, [[1-(2-Benzofuran-3-yl-acetyl)-2-methyl-azetidine-2-carbonyl]-(4-chloro-benzyl)-amino]-acetic acid], the IC50 on GPR43 [1] and at GPR43 [2] was 101 to 500 nM each time.
Consider `CC1(C(=O)N(CC(=O)O)Cc2ccc(Cl)cc2)CCN1C(=O)Cc1noc2ccccc12` (stereo not shown) [Compound 79, [[1-(2-Benzo[d]isoxazol-3-yl-acetyl)-2-methyl-azetidine-2-carbonyl]-(4-chloro-benzyl)-amino]-acetic acid], for which the IC50 at GPR43 [1] and at GPR43 [2] was more than 1000 nM throughout.
As for `Cc1cc(C)cc(CC(=O)N2CCC2(C)C(=O)N(CC(=O)NC(C)C)Cc2ccc(Cl)cc2)c1` (stereo not shown) [Compound 80, 1-[2-(3,5-Dimethyl-phenyl)-acetyl]-2-methyl-azetidine-2-carboxylic acid (4-chloro-benzyl)-(isopropylcarbamoyl-methyl)-amide], the IC50 at GPR43 [1] and at GPR43 [2] was more than 1000 nM throughout.
`Cc1cc(C)cc(CC(=O)N2CC[C@]2(C)C(=O)N(CC(=O)O)Cc2ccc(Cl)cc2)c1` [Compound 82, ((4-Chloro-benzyl)-{(R)-1-[2-(3,5-dimethyl-phenyl)-acetyl]-2-methyl-azetidine-2-carbonyl}-amino)-acetic acid]: the IC50 on GPR43 [1] and at GPR43 [2] was 101 to 500 nM each time.
As to `Cc1cc(C)cc(CC(=O)N2CCC2(C)C(=O)N(CC(=O)N2CCOCC2)Cc2ccc(Cl)cc2)c1` (stereo not shown) [Compound 83, 1-[2-(3,5-Dimethyl-phenyl)-acetyl]-2-methyl-azetidine-2-carboxylic acid (4-chloro-benzyl)-(2-morpholin-4-yl-2-oxo-ethyl)-amide], the half-maximal inhibitory concentration (IC50) at GPR43 [1] and on GPR43 [2] was more than 1000 nM throughout.
Turning to `CC1(C(=O)N(CC#N)Cc2ccc(Cl)cc2)CCN1C(=O)Cc1csc2ccccc12` (stereo not shown) [Compound 84, 1-(2-Benzo[b]thiophen-3-yl-acetyl)-2-methyl-azetidine-2-carboxylic acid (4-chloro-benzyl)-cyanomethyl-amide], the IC50 at GPR43 [1] and at GPR43 [2] was 101 to 500 nM in each case.
As to `O=C(O)CN(Cc1ccc(Cl)cc1)C(=O)C1(CO)CCN1C(=O)Cc1csc2ccccc12` (stereo not shown) [Compound 85, [[1-(2-Benzo[b]thiophen-3-yl-acetyl)-2-hydroxymethyl-azetidine-2-carbonyl]-(4-chloro-benzyl)-amino]-acetic acid], the IC50 was 101 to 500 nM at GPR43 [1] and more than 1000 nM on GPR43 [2].
In the same order, the values of `COC(=O)CCN(Cc1ccc(Cl)cc1)C(=O)C1(C)CCN1C(=O)Cc1csc2ccccc12` (stereo not shown) [Compound 86, 3-[[1-(2-Benzo[b]thiophen-3-yl-acetyl)-2-methyl-azetidine-2-carbonyl]-(4-chloro-benzyl)-amino]-propionic acid methyl ester] are 0.01 to 100 nM and 101 to 500 nM.
With `CCOC(=O)CCCN(Cc1ccc(Cl)cc1)C(=O)C1(C)CCN1C(=O)Cc1csc2ccccc12` (stereo not shown) [Compound 87, 4-[[1-(2-Benzo[b]thiophen-3-yl-acetyl)-2-methyl-azetidine-2-carbonyl]-(4-chloro-benzyl)-amino]-butyric acid ethyl ester], the IC50 on GPR43 [1] and on GPR43 [2] was 501 to 1000 nM throughout.
Consider `CC1(C(=O)N(CCC(=O)O)Cc2ccc(Cl)cc2)CCN1C(=O)Cc1csc2ccccc12` (stereo not shown) [Compound 88, 3-[[1-(2-Benzo[b]thiophen-3-yl-acetyl)-2-methyl-azetidine-2-carbonyl]-(4-chloro-benzyl)-amino]-propionic acid], for which the IC50 on GPR43 [1] and at GPR43 [2] was 101 to 500 nM in each case.
As to `CN(Cc1ccc(Cl)cc1)C(=O)C1(C)CCN1C(=O)Cc1cn(C)c2ccccc12` (stereo not shown) [Compound 91, 2-Methyl-1-[2-(1-methyl-1H-indol-3-yl)-acetyl]-azetidine-2-carboxylic acid (4-chloro-benzyl)-methyl-amide], the IC50 at GPR43 [1] and at GPR43 [2] was more than 1000 nM in each case.
On to `Cc1cc(C)cc(CC(=O)N2CCC2(C)C(=O)N(CC(=O)NS(=O)(=O)C(F)(F)F)Cc2ccc(Cl)cc2)c1` (stereo not shown) [Compound 94, 1-[2-(3,5-Dimethyl-phenyl)-acetyl]-2-methyl-azetidine-2-carboxylic acid (4-chloro-benzyl)-(2-oxo-2-trifluoromethanesulfonylamino-ethyl)-amide], for which the IC50 at GPR43 [1] and on GPR43 [2] was more than 1000 nM throughout.

Source of the values: US8759334B2, “Compounds useful for the treatment of metabolic and inflammatory diseases” (Galapagos NV, priority 2011, dated 2014).
